The text below walks through data of publication PMC12162926, “A novel strategy for identifying hepatotoxic constituents in traditional Chinese medicine using dose-normalized intracellular accumulation as a cytotoxicity indicator: a case study of Jinlingzi San” (Frontiers in Pharmacology, 2025).

For data set [1], the system named is L-02 cells. In words: Intracellular identification of L-02 cell-uptake components by LC–MS/MS. The format is in vitro ADME, human. As to conditions: L-02 exposed to JLZS-containing medium 6.5 mg/mL for 2 h. How it is done:
The powder of 25 g FT and 25 g RC was evenly blended and then refluxed twice with six-fold 50% ethanol (1: 6, w/v) for 1 h; the collected filtrate was evaporated to dryness and further dissolved in DMSO, after filtering using the 0.22-µm cellulose acetate membrane. JLZS-containing medium (6.5 mg/mL) was freshly prepared by diluting the filtrate with RPMI-1640. Likewise, RC-containing medium was freshly prepared in the same method independently.
L-02 cells were seeded on 9-cm-diameter cell culture plates; after ∼80% confluent, the cultured cells were incubated with 6.5 mg/mL JLZS-containing medium. After 2-h exposure, L-02 cells were quickly washed free of culture medium with cold PBS (−) twice and harvested with 1 mL of 0.25% trypsin-EDTA for cell isolation. The cell suspension (∼5 × 10^6 cells) was spun down, and the cells were further washed twice in cold PBS (−). Then, 200 µL of methanol was used to lyse the collected cells with vortex mixing for 1 min. The cell lysates were centrifuged at 12,000 rpm for 4 min, and 10 μL of the centrifugal supernatant was injected into the LC–MS/MS system for identified analysis.
The LC–MS/MS system consisted of a Thermo TSQ Quantum Ultra triple-quadrupole mass spectrometer equipped with an electrospray ionization source (San Jose, CA, United States). LCquan quantitation software (version 2.5.6, Thermo Fisher Scientific, Waltham, MA, USA) was used to control the LC–MS/MS system for data acquisition and analysis. Analytes and IS separation were conducted using a Waters XTerra® MS C18 column (3.0 mm × 50 mm, 5 µm) maintained at 20 °C. By injecting 5 µL samples with a flow rate of 0.2 mL/min, chromatographic separation was achieved using a mobile phase of 0.1% formic acid–water (A) and methanol (B) via gradient elution, 0.0–2.0 min, 35%–50% B; 2.0–2.1 min, 50%–55% B; 2.1–2.5 min, 55%–60% B; 2.5–14.0 min, 60% B. The analytes and IS were detected in the ESI source by polarity switching from positive for 0.0–8.0 min to negative-ion modes for 8.5–14.0 min in a single run with multiple reaction monitoring (MRM).

Data set [2] concerns L-02 cells. The data set is described as follows: Intracellular accumulation in L-02 cells by LC–MS/MS. The format is in vitro ADME, human. As to conditions: for Intracellular concentration: L-02, JLZS extracts 6.5 mg/mL, n = 6.
The subject of data set [3] is L-02 cells. The data set is described as follows: Cell growth inhibition assay (CCK-8). The class given is cell-based, human. As to conditions: L-02, 24 h exposure, single compounds.
Data set [4] can be described thus: Stability of analytes in cell lysates (LC–MS/MS method validation). The format is physicochemical. To be noted: n=3; for Post-preparation stability RE%: 4 ℃, 24 h at autosampler; for Short-term stability RE%: 12 h at room temperature; for Long-term stability RE%: -80℃ for a month; for Freeze-thaw stability RE%: three freeze-thaw. Here is the method: The stability of seven analytes including short-term stability (12 h at room temperature), post-preparation stability at 4 ℃ (24 h at autosampler), freeze-thaw stability (three freeze-thaw stability) and long-term stability (-80℃ for a month) was tested by analyzing three replicates at low and high QC levels during various sample storage and handling process.

On the set-up of data set [5]: method as in Gu et al., 2021. To be noted: pharmacokinetic level, JLZS vs single herb; ref Gu et al., 2021; cited from earlier work.

Molecules are shown by their SMILES.

`COc1cc2c(cc1OC)-c1cc3ccc(OC)c(OC)c3c[n+]1CC2` [PAL, palmatine]: the “detection in cell lysates” value in data set [1] is listed as “found in the cell lysates”. In addition, the Intracellular concentration in data set [2] (time 0.25 h) is on record as 11.6 ± 1.8 ng/mL; in data set [2] (time 0.5 h) it was 15.6 ± 2.7 ng/mL; in data set [2] (time 1 h), 29.6 ± 7.9 ng/mL; in data set [2] (time 1.5 h), 40.2 ± 10.1 ng/mL; in data set [2] (time 2 h), 49.4 ± 19.9 ng/mL; in data set [2] (time 3 h), 65.7 ± 12.4 ng/mL. The Intracellular concentration in data set [2] (time 5 h) came out at 96.9 ± 10.7 ng/mL; in data set [2] (time 8 h) it was 99.5 ± 24.3 ng/mL. In data set [3], the “IC50 (cell viability)” value is reported as “not detected IC50 values within the set concentration range”. Besides, the “Post-preparation stability RE%” value in data set [4] (high QC level) was 6.8%; in data set [4] (low QC level), -1.3%. For the same molecule, the “Short-term stability RE%” value came out at 2.5% in data set [4] (high QC level) and 6.5% in data set [4] (low QC level). For the same molecule, the “Long-term stability RE%” value in data set [4] (high QC level) was 0.0%; in data set [4] (low QC level), 6.4%. In addition, the “Freeze-thaw stability RE%” value was 6.5% in data set [4] (high QC level) and -3.5% in data set [4] (low QC level). In data set [5], the “elimination in the JLZS group compared with the single-herb group” value is “decreased significantly”.
For the molecule `c1cc2c(c3c1CC1c4cc5c(cc4CCN1C3)OCO5)OCO2` (stereo not shown) [THC, tetrahydrocoptisine], the “detection in cell lysates” value in data set [1] is “found in the cell lysates”. The Intracellular concentration amounted to 15.8 ± 3.0 ng/mL in data set [2] (time 0.25 h); 13.3 ± 0.5 ng/mL in data set [2] (time 0.5 h); 15.0 ± 2.7 ng/mL in data set [2] (time 1 h); 17.7 ± 3.6 ng/mL in data set [2] (time 1.5 h); 20.3 ± 5.4 ng/mL in data set [2] (time 2 h); 15.8 ± 2.9 ng/mL in data set [2] (time 3 h). The Intracellular concentration is reported as 15.1 ± 1.4 ng/mL in data set [2] (time 5 h) and 13.3 ± 1.8 ng/mL in data set [2] (time 8 h). Moreover, in data set [3], the “IC50 (cell viability)” value was “not detected IC50 values within the set concentration range”. Also, the figures for the “Post-preparation stability RE%” value in data set [4] (high QC level) and in data set [4] (low QC level) were -0.9% and -0.6%, respectively. The “Short-term stability RE%” value came out at 4.6% in data set [4] (high QC level) and 3.4% in data set [4] (low QC level). For the same molecule, the “Long-term stability RE%” value came out at 1.2% in data set [4] (high QC level) and 5.3% in data set [4] (low QC level). In addition, the “Freeze-thaw stability RE%” value in data set [4] (high QC level) is on record as -1.4%; in data set [4] (low QC level), -2.5%. The “elimination in the JLZS group compared with the single-herb group” value in data set [5] was “decreased significantly”.
As for `CC(=O)O[C@@H]1C[C@H](O)[C@@]23CO[C@@H](O)[C@]1(C)[C@@H]2C[C@@H](O)[C@]1(C)[C@@H]3C(=O)[C@H](OC(C)=O)[C@@]2(C)[C@H](c3ccoc3)C[C@H]3O[C@]321` [TSN, toosendanin], the “detection in cell lysates” value in data set [1] is “found in the cell lysates”. Moreover, the Intracellular concentration in data set [2] (time 0.25 h) turned out to be 10.4 ± 1.1 ng/mL; in data set [2] (time 0.5 h) it was 13.6 ± 4.0 ng/mL; in data set [2] (time 1 h), 38.5 ± 10.2 ng/mL; in data set [2] (time 1.5 h) it was 32.8 ± 13.6 ng/mL; in data set [2] (time 2 h) it was 20.1 ± 2.8 ng/mL; in data set [2] (time 3 h), 23.8 ± 4.4 ng/mL. Further, the figures for the Intracellular concentration in data set [2] (time 5 h) and in data set [2] (time 8 h) were 26.4 ± 9.2 ng/mL and 15.5 ± 3.4 ng/mL, respectively. Besides, in data set [2] (L-02 exposed to JLZS 6.5 mg/mL), the “exposure time at highest intracellular concentration” value is 1 h. Further, the “IC50 (cell viability)” value in data set [3] is on record as “not detected IC50 values within the set concentration range”. Further, the “Post-preparation stability RE%” value in data set [4] (high QC level) stood at 0.1%; in data set [4] (low QC level), 7.6%. The “Short-term stability RE%” value was -0.1% in data set [4] (high QC level) and 8.0% in data set [4] (low QC level). In addition, the figures for the “Long-term stability RE%” value in data set [4] (high QC level) and in data set [4] (low QC level) were 8.6% and 10.2%, respectively. For the same molecule, the “Freeze-thaw stability RE%” value was -4.0% in data set [4] (high QC level) and 6.2% in data set [4] (low QC level). Also, the “elimination in the JLZS group compared with the single-herb group” value in data set [5] is on record as “decreased significantly”.
